One may read the Emax as the maximal effect, on the per cent scale that the assay sets. The term EC50 denotes the concentration needed to bring the measured effect to its halfway point.

Read-outs that look alike come from different tables or passages of the source. Where a SMILES comes first, the peptide text is derived from it. [ ]: non-standard residue; d: D form. The star is where a group is joined. Decanoyl = CCCCCCCCCC(=O)*; Aib = CC(C)(N)C(=O)O

What all share (type): cell-based
Assay [1] has as its target T1, human GIPR (Homo sapiens, UniProt P48546).
T1 construct: host or cells: COS-7
T1 sequence (P48546 22-466): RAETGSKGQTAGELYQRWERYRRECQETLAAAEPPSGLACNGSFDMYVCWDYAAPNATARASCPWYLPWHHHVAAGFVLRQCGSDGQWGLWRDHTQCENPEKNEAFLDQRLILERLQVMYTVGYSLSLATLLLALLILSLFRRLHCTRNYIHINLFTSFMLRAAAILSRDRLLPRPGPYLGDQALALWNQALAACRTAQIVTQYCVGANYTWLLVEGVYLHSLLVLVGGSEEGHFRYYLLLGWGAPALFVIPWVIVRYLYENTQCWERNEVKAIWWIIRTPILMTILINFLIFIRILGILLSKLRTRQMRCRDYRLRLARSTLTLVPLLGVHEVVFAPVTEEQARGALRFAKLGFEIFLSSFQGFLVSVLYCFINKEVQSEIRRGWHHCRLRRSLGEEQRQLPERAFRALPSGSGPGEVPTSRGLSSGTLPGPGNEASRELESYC
Kind of assay: cAMP assay (HitHunter) in transiently transfected COS-7 cells expressing human GIPR. Particulars: for Emax: COS-7, normalized to highest concentration of the endogenous ligand, read-out: Efficacy GIPR (Emax); for EC50: cAMP, COS-7 cells, human GIPR. As to the method:
(§1) The next day the assay was initiated by washing with HEPES buffered saline (HBS) and followed by an incubation step with assay buffer (HBS added 1 mM isobutyl-1-methylxanthine (IBMX)) for 30 min at 37° C. The ligands were then added and incubated for an additional 30 min at 37° C. After ligand incubation, the HitHunter® CAMP assay (Eurofins DiscoverX, Fremont, […] USA) was carried out according to the manufacturer's instructions. […] The potencies (EC50 values) were determined by nonlinear regression using GraphPad Prism 9 (San Diego, California, USA). Sigmoid curves were fitted logistically. The efficacies (Emax values) were determined by normalization to the highest concentration applied of the endogenous ligand for each receptor.
Background: Cyclic AMP is a second messenger, typically raised through Gs and lowered through Gi signalling.

Assay [2] deals with T2, human GLP-2R (Homo sapiens, UniProt O95838).
T2 construct: host or cells: COS-7
T2 sequence (O95838 1-553): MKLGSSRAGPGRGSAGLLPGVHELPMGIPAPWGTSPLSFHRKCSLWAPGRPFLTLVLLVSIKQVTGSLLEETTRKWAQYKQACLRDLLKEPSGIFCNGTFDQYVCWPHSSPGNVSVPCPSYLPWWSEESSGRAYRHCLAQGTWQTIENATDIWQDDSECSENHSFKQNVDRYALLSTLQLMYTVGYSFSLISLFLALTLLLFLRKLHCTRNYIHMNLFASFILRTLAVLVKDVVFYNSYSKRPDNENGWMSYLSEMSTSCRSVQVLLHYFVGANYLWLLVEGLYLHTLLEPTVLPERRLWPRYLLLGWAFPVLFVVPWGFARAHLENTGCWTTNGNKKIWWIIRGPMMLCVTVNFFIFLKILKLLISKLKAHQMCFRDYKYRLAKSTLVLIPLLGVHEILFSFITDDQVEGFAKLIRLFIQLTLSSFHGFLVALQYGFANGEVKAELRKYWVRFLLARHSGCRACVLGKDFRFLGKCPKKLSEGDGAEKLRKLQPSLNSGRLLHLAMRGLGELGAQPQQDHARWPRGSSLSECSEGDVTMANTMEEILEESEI
The assay is described as follows: cAMP assay (HitHunter) in transiently transfected COS-7 cells expressing human GLP-2R. Particulars: for Emax: COS-7, normalized to highest concentration of the endogenous ligand, read-out: Efficacy GLP-2R (Emax). As to the method:
as §1

The target of assay [3] is T3, human GLP-1R (Homo sapiens, UniProt P43220).
T3 construct: host or cells: COS-7
T3 sequence (P43220 24-463): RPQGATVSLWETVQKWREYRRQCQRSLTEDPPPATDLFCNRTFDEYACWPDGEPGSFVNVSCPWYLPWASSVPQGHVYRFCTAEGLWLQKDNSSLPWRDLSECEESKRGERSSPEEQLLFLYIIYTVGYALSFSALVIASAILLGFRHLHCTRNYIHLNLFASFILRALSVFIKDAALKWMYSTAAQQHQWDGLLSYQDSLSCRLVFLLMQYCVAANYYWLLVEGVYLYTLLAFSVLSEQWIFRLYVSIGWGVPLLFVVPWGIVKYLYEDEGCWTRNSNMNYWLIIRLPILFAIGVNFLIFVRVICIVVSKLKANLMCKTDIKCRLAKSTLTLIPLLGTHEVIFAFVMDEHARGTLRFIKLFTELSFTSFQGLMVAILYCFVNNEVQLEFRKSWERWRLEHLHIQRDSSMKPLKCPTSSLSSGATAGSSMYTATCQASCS
Kind of assay: cAMP assay (HitHunter) in transiently transfected COS-7 cells expressing human GLP-1R. The following applies: for Emax: COS-7, normalized to highest concentration of the endogenous ligand, read-out: Efficacy GLP-1R (Emax). How it is done: as §1

Setting [4] is: cAMP, COS-7 cells, human GLP-2R, read-out: EC50 (nM) GLP-2R.
[5] abbreviates: cAMP, COS-7 cells, human GLP-1R, read-out: EC50 (nM) GLP-1R.

As for `CCCCCCCCCC(=O)NCCCC[C@H](NC(=O)[C@@H](NC(=O)[C@@H](NC(=O)[C@H](CCCCN)NC(=O)[C@@H](NC(=O)[C@H](CCC(N)=O)NC(=O)[C@@H](NC(=O)[C@H](CC(C)C)NC(=O)[C@H](Cc1c[nH]c2ccccc12)NC(=O)[C@H](CC(N)=O)NC(=O)[C@@H](NC(=O)[C@H](Cc1ccccc1)NC(=O)[C@H](CC(=O)O)NC(=O)[C@H](CCCNC(=N)N)NC(=O)[C@H](C)NC(=O)[C@H](C)NC(=O)[C@H](CC(C)C)NC(=O)[C@H](C)NC(=O)[C@H](CC(=O)O)NC(=O)[C@H](CC(C)C)NC(=O)[C@@H](NC(=O)[C@@H](NC(=O)[C@H](CO)NC(=O)[C@H](Cc1ccc(O)cc1)NC(=O)[C@H](CC(=O)O)NC(=O)[C@H](CO)NC(=O)[C@@H](NC(=O)[C@H](Cc1ccccc1)NC(=O)[C@@H](NC(=O)CNC(=O)[C@H](CC(=O)O)NC(=O)C(C)(C)NC(=O)[C@@H](N)Cc1c[nH]cn1)[C@@H](C)O)[C@@H](C)CC)[C@@H](C)O)[C@@H](C)CC)[C@@H](C)CC)[C@@H](C)CC)[C@@H](C)O)[C@@H](C)CC)[C@@H](C)O)C(N)=O` [Compound 5] (H-H[Aib]DGTFISDYSTILDALAARDFINWLIQTKITK(Decanoyl)-NH2), the Emax in assay [1] was determined as 111%; in assay [2], 110%; in assay [3] it was 105%. The figures for the EC50 in assay [1], in assay [2] (setting [4]) and in assay [3] (setting [5]) were 0.158 nM, 2 nM and 1.78 nM, respectively.

Consider `CCCCCCCCCC(=O)NCCCC[C@H](NC(=O)[C@@H](NC(=O)[C@@H](NC(=O)[C@H](CCCCN)NC(=O)[C@@H](NC(=O)[C@H](CCC(N)=O)NC(=O)[C@@H](NC(=O)[C@H](CC(C)C)NC(=O)[C@H](Cc1c[nH]c2ccccc12)NC(=O)[C@H](CC(N)=O)NC(=O)[C@@H](NC(=O)[C@H](Cc1ccccc1)NC(=O)[C@H](CC(=O)O)NC(=O)[C@H](CCCNC(=N)N)NC(=O)[C@H](C)NC(=O)[C@H](C)NC(=O)[C@H](CC(C)C)NC(=O)[C@H](CC(N)=O)NC(=O)[C@H](CCC(=O)O)NC(=O)[C@H](CC(C)C)NC(=O)[C@@H](NC(=O)[C@@H](NC(=O)[C@H](CO)NC(=O)[C@H](Cc1ccc(O)cc1)NC(=O)[C@H](CC(=O)O)NC(=O)[C@H](CO)NC(=O)[C@@H](NC(=O)[C@H](Cc1ccccc1)NC(=O)[C@@H](NC(=O)CNC(=O)[C@H](CC(=O)O)NC(=O)C(C)(C)NC(=O)[C@@H](N)Cc1c[nH]cn1)[C@@H](C)O)[C@@H](C)CC)[C@@H](C)O)[C@@H](C)CC)[C@@H](C)CC)[C@@H](C)CC)[C@@H](C)O)[C@@H](C)CC)[C@@H](C)O)C(N)=O` [Compound 7] (H-H[Aib]DGTFISDYSTILENLAARDFINWLIQTKITK(Decanoyl)-NH2), for which the Emax in assay [1] stood at 96%; in assay [2] it was 97%; in assay [3], 95%. Also, the EC50 in assay [1] is 0.794 nM; in assay [3] (setting [5]) it was 2.82 nM.

For `CCCCCCCCCC(=O)NCCCC[C@H](NC(=O)[C@@H](NC(=O)[C@@H](NC(=O)[C@H](CCCCN)NC(=O)[C@@H](NC(=O)[C@H](CCC(N)=O)NC(=O)[C@@H](NC(=O)[C@H](CC(C)C)NC(=O)[C@H](Cc1c[nH]c2ccccc12)NC(=O)[C@H](CCC(=O)O)NC(=O)[C@@H](NC(=O)[C@H](Cc1ccccc1)NC(=O)[C@H](CC(=O)O)NC(=O)[C@H](CCCNC(=N)N)NC(=O)[C@H](C)NC(=O)[C@H](C)NC(=O)[C@H](CC(C)C)NC(=O)[C@H](CC(N)=O)NC(=O)[C@H](CC(=O)O)NC(=O)[C@H](CC(C)C)NC(=O)[C@@H](NC(=O)[C@@H](NC(=O)[C@H](CO)NC(=O)[C@H](Cc1ccc(O)cc1)NC(=O)[C@H](CC(=O)O)NC(=O)[C@H](CO)NC(=O)[C@@H](NC(=O)[C@H](Cc1ccccc1)NC(=O)[C@@H](NC(=O)CNC(=O)[C@H](CC(=O)O)NC(=O)C(C)(C)NC(=O)[C@@H](N)Cc1c[nH]cn1)[C@@H](C)O)[C@@H](C)CC)[C@@H](C)O)[C@@H](C)CC)[C@@H](C)CC)[C@@H](C)CC)[C@@H](C)O)[C@@H](C)CC)[C@@H](C)O)C(N)=O` [Compound 9], the Emax in assay [1] was found to be 104%; in assay [2] it was 108%; in assay [3], 105%. Also, in assay [2] (setting [4]), the EC50 is 11.2 nM.

With `CCCCCCCCCC(=O)NCCCC[C@H](NC(=O)[C@@H](NC(=O)[C@@H](NC(=O)[C@H](CCCCN)NC(=O)[C@@H](NC(=O)[C@H](CCC(N)=O)NC(=O)[C@@H](NC(=O)[C@H](CC(C)C)NC(=O)[C@H](Cc1c[nH]c2ccccc12)NC(=O)[C@H](CC(N)=O)NC(=O)[C@@H](NC(=O)[C@H](Cc1ccccc1)NC(=O)[C@H](CC(=O)O)NC(=O)[C@H](CCCNC(=N)N)NC(=O)[C@H](C)NC(=O)[C@H](C)NC(=O)[C@H](CC(C)C)NC(=O)[C@H](CC(N)=O)NC(=O)[C@H](CC(=O)O)NC(=O)[C@H](CC(C)C)NC(=O)[C@@H](NC(=O)[C@@H](NC(=O)[C@H](CO)NC(=O)[C@H](Cc1ccc(O)cc1)NC(=O)[C@H](CC(=O)O)NC(=O)[C@H](CO)NC(=O)[C@@H](NC(=O)[C@H](Cc1ccccc1)NC(=O)[C@@H](NC(=O)CNC(=O)[C@H](CC(=O)O)NC(=O)C(C)(C)NC(=O)[C@@H](N)Cc1c[nH]cn1)[C@@H](C)O)[C@@H](C)CC)[C@@H](C)CC)[C@@H](C)CC)[C@@H](C)CC)[C@@H](C)CC)[C@@H](C)O)[C@@H](C)CC)[C@@H](C)O)C(N)=O` [Compound 10] (H-H[Aib]DGTFISDYSIILDNLAARDFINWLIQTKITK(Decanoyl)-NH2), the Emax in assay [1] was found to be 127%; in assay [2] it was 103%; in assay [3], 99%. Besides, the EC50 in assay [2] was found to be 11.2 nM; in assay [3], 3.98 nM.

`CCCCCCCCCC(=O)NCCCC[C@H](NC(=O)[C@@H](NC(=O)[C@@H](NC(=O)[C@H](CCCCN)NC(=O)[C@@H](NC(=O)[C@H](CCC(N)=O)NC(=O)[C@@H](NC(=O)[C@H](CC(C)C)NC(=O)[C@H](Cc1c[nH]c2ccccc12)NC(=O)[C@H](CC(N)=O)NC(=O)[C@@H](NC(=O)[C@H](Cc1ccccc1)NC(=O)[C@H](CC(=O)O)NC(=O)[C@H](CCCNC(=N)N)NC(=O)[C@H](C)NC(=O)[C@H](C)NC(=O)[C@H](CC(C)C)NC(=O)[C@H](CC(N)=O)NC(=O)[C@H](CC(=O)O)NC(=O)[C@H](CC(C)C)NC(=O)[C@@H](NC(=O)[C@@H](NC(=O)[C@H](CO)NC(=O)[C@H](Cc1ccc(O)cc1)NC(=O)[C@H](CC(=O)O)NC(=O)[C@H](CO)NC(=O)[C@@H](NC(=O)[C@H](Cc1ccccc1)NC(=O)[C@@H](NC(=O)CNC(=O)[C@H](CCC(=O)O)NC(=O)C(C)(C)NC(=O)[C@@H](N)Cc1c[nH]cn1)[C@@H](C)O)[C@@H](C)CC)[C@@H](C)O)[C@@H](C)CC)[C@@H](C)CC)[C@@H](C)CC)[C@@H](C)O)[C@@H](C)CC)[C@@H](C)O)C(N)=O` [Compound 11] (H-H[Aib]EGTFISDYSTILDNLAARDFINWLIQTKITK(Decanoyl)-NH2): the Emax in assay [1] amounted to 89%; in assay [2] it was 68%; in assay [3] it was 76%. In assay [2] (setting [4]), the EC50 came out at 25.1 nM.

The values above are taken from patent US20250304644A1, “PEPTIDES TRIPLE AGONISTS OF GIP, GLP-1 AND GLP-2” (BAINAN BIOTECH APS, priority 2021, published 2025).
